Experimental data as given in patent publication US9115092B2, “Substituted quinazoline and pyrido-pyrimidine derivatives” (Asana Biosciences, LLC, priority 2010, dated 2015).

Key:
mTOR kinase = biological target: T1, mTOR kinase (Homo sapiens, UniProt P42345); test: mTOR kinase TR-FRET assay; assay type: biochemical; settings: read-out: mTO R
T1 construct: purchased Millipore, USA
Summary of the method: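 TR-FRET read-out (340 nm excitation, 615/665 nm emission) of Thr389 phosphorylation of a ULight-labeled p70 S6K peptide (50 nM) by mTOR, 20 μM ATP, 60 min room temperature after 60 min compound preincubation. Buffer HEPES pH 7.5 with MnCl2, EGTA; IC50 by sigmoidal dose-response.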

[1] = biological target: T2, PI3Kα (wild-type), P110/P85α (Homo sapiens, UniProt P42336); test: PI3 Kinase TR-FRET assay, PI3Kα (wild-type); assay type: biochemical
T2 construct: made in house; host or cells: SF9 insect cells
T2 sequence (P42336 whole entry): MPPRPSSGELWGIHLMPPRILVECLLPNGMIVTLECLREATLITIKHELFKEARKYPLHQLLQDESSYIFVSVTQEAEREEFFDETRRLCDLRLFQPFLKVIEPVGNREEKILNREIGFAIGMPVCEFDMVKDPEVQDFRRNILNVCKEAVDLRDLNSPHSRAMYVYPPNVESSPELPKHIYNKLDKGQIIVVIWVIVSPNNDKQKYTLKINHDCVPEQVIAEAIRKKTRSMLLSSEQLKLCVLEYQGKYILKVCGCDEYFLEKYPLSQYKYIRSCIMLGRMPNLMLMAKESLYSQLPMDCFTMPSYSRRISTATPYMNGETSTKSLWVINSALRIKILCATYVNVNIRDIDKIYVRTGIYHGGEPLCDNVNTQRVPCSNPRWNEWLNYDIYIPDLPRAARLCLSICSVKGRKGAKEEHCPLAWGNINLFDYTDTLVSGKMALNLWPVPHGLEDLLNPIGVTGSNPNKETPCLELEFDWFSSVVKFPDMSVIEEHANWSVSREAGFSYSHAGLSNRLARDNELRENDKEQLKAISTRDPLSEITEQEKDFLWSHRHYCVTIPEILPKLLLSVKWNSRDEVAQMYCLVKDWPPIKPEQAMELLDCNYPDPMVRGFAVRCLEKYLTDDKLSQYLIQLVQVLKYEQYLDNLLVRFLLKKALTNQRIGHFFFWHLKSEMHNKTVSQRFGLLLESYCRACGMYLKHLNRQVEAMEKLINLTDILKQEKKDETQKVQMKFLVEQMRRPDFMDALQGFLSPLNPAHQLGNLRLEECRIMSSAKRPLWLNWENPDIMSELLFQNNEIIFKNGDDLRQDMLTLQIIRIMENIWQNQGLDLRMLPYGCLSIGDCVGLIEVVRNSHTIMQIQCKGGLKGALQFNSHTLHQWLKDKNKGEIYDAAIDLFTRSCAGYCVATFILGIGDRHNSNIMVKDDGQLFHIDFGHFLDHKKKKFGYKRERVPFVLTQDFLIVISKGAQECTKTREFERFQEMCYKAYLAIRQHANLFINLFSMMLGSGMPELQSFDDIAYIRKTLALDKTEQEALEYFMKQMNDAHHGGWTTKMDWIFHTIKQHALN
T2 sequence (P27986 whole entry partner): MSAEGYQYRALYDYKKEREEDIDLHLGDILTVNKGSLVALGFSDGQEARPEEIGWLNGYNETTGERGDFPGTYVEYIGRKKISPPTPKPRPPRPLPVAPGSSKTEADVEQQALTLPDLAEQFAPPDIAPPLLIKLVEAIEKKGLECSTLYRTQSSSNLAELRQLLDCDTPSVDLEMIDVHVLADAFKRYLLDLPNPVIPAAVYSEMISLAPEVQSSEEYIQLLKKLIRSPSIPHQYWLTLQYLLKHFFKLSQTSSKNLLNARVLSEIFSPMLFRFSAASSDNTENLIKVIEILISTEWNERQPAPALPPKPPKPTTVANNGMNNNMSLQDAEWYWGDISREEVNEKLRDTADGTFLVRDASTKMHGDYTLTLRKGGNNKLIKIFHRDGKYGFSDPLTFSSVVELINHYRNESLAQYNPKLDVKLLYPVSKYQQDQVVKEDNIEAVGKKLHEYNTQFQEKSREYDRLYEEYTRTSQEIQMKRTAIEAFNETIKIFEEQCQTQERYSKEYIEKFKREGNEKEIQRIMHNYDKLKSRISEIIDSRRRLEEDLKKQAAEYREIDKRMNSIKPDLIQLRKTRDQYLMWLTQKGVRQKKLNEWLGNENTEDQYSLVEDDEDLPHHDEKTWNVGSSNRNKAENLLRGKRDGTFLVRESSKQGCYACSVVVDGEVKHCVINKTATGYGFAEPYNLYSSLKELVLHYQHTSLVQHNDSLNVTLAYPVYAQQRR
Summary of the method: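 TR-FRET read-out of PIP3 formation via biotin-PIP3 displacement (665/615 nm ratio) gave IC50 curves. Enzyme: 5 ng wild-type P110/P85α from Sf9 cells, 60 min RT with compound and PIP2 (MgCl2 40 mM, DTT 5 mM), then 30 min RT kinase reaction at 10 μM ATP and 10 μM PIP2.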

[2] = test system: pAKT(5473) (phosphorylated at serine 473), PC3 cells; test: In-cell Western assay, pAKT(5473) in PC3 cells; assay type: cell-based; settings: Homo sapiens, PC-3, In-cell Western, read-out: pAkt-S473
Experimental: Cells from human prostate cancer cell line PC3 (American Type Culture Collection (ATCC), Manassas, Va. 20108 USA) were seeded at an optimal density of 22,000 cell/well in 96-well plates containing Ham's F12K medium (90 μL) and incubated overnight. The compound dilutions were carried out in 100% DMSO followed by a dilution in the medium. Test compounds were added in serial dilutions to the wells and incubated for 2 h. The cells were washed and fixed with 4% paraformaldehyde. After incubation at room temperature for 1 h in the dark, blocking was done for 2 h at room temperature. Primary antibodies for phosphorylated (p) AKT(5473) (phosphorylated at serine 473), pAKT(T308) (phosphorylated at threonine 308) and for pS6RP(S235/236) (phosphorylated at serine 235/236) (commercially available from Cell Signaling Technology®, whose protocol was followed for the in-cell western assay, were diluted to the required concentration and added to the corresponding wells followed by overnight incubation at 4° C. Eu-labeled rabbit (PE) (Perkin-Elmer USA catalog #AD0106) secondary antibody was added and incubated for 2 h at room temperature. Delfia® enhancement solution (cat #1244-105, Perkin Elmer USA) was subsequently added to the plate before taking the reading at 615 nm with excitation wavelength of 340 nm, after which 0.5 μg/mL of Hoechst® 33258 dye (Catalog #86140-5, Sigma) was added to the plate and fluorescence emission was read at 460 nm with 355 nm excitation, to evaluate the correction factor. IC50 values were calculated using a sigmoidal dose-response curve fit in GraphPad Prism® v5 software.

PC3 cells = test: XTT assay for cell viability, PC3 cells; assay type: cell-based, human; settings: Homo sapiens, PC-3, cell viability
Summary of the method: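 PC3 cells seeded at 1000 cells/well, grown 24 h, then exposed to serial dilutions of compound for 96 h. Viability read by XTT dye at 37° C, absorbance 465 nm. EC50 from sigmoidal dose-response fit.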

[3] = test system: pS6RP(S235/236), PC3 cells; test: In-cell Western assay, pS6RP(S235/236) in PC3 cells; assay type: cell-based, human; settings: Homo sapiens, PC-3, In-cell Western
Summary of the method: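 Overnight-seeded PC3 cells were treated 2 h with serially diluted compound, then fixed and immunostained with phospho-specific primary antibodies and Eu-labelled secondary. Time-resolved Eu signal read at 615 nm (ex 340 nm), normalised by Hoechst 33258 staining (ex 355/em 460 nm); IC50 from sigmoidal dose-response fit.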

SMILES	IC50 (mTOR kinase)	IC50 [1]	IC50 [2]	IC50 (PC3 cells)	IC50 [3]
CN(C)C(=O)c1ccc(NC(=O)Nc2ccc(-c3nc(N4CCOCC4)c4ccc(-c5ccccn5)cc4n3)cc2)cc1 [Example 155, N,N-dimethyl-4-(3-(4-(4-morpholino-7-(pyridin-2-yl)quinazolin-2-yl)phenyl)ureido)-benzamide]	< 50 nM	< 50 nM	< 100 nM	201 to 10000 nM	
CNC(=O)c1ccc(NC(=O)Nc2ccc(-c3nc(N4CCOCC4)c4ccc(-c5cncnc5)cc4n3)cc2F)cc1 [Example 215, 4-(3-(2-fluoro-4-(4-morpholino-7-(pyrimidin-5-yl)quinazolin-2-yl)phenyl)ureido)-N-methyl-benzamide]	50 to 200 nM	50 to 200 nM		201 to 10000 nM	201 to 10000 nM
CC(O)c1ccc(-c2cnc3c(N4CCOCC4)nc(-c4ccc(NC(=O)Nc5ccc(C(=O)N(C)C)cc5)cc4)nc3c2)o1 (stereo not shown) [Example 216, 4-(3-(4-(7-(5-(1-hydroxyethyl)furan-2-yl)-4-morpholino-pyrido[3,2-d]pyrimidin-2-yl)phenyl)ureido)-N,N-dimethyl-benzamide]	< 50 nM	< 50 nM		201 to 10000 nM	201 to 10000 nM
CN(C)CCNC(=O)c1ccc(NC(=O)Nc2ccc(-c3nc(N4CCOCC4)c4ccc(-c5cncnc5)cc4n3)cc2F)cc1 [Example 217, N-(2-(dimethylamino)ethyl)-4-(3-(2-fluoro-4-(4-morpholino-7-(pyrimidin-5-yl)quinazolin-2-yl)phenyl)ureido)-benzamide]	< 50 nM	< 50 nM		201 to 10000 nM	201 to 10000 nM
CC(=O)c1ccc(-c2ccc3c(N4CCOCC4)nc(-c4ccc(NC(=O)Nc5ccc(C(=O)N(C)C)cc5)cc4)nc3c2)o1 [Example 224, 4-(3-(4-(7-(5-acetylfuran-2-yl)-4-morpholino-quinazolin-2-yl)phenyl)ureido)-N,N-dimethyl-benzamide]	< 50 nM	< 50 nM		201 to 10000 nM	201 to 10000 nM
CN(C)C(=O)c1ccc(NC(=O)Nc2ccc(-c3nc(N4CCOCC4)c4ccc(-c5cncnc5)cc4n3)c(F)c2)cc1 [Example 237, 4-(3-(3-fluoro-4-(4-morpholino-7-(pyrimidin-5-yl)quinazolin-2-yl)phenyl)ureido)-N,N-dimethyl-benzamide]	< 50 nM	< 50 nM		201 to 10000 nM	201 to 10000 nM
CN(C)C(=O)c1ccc(NC(=O)Nc2ccc(-c3nc(N4CCOCC4)c4ccc(-c5ccco5)cc4n3)c(F)c2)cc1 [Example 247, 4-(3-(3-fluoro-4-(7-(furan-2-yl)-4-morpholino-quinazolin-2-yl)phenyl)ureido)-N,N-dimethyl-benzamide]	50 to 200 nM	50 to 200 nM		201 to 10000 nM	201 to 10000 nM
CN(C)C(=O)c1ccc(NC(=O)Nc2ccc(-c3nc(N4CCOCC4)c4ccc(CO)cc4n3)cc2)cc1 [Example 285, 4-(3-(4-(7-(hydroxymethyl)-4-morpholino-quinazolin-2-yl)phenyl)ureido)-N,N-dimethyl-benzamide]	< 50 nM	< 50 nM		< 100 nM	201 to 10000 nM

Next, values leading:

IC50 (mTOR kinase)	IC50 [1]	IC50 [2]	IC50 (PC3 cells)	IC50 [3]	SMILES
< 50 nM	< 50 nM		< 100 nM	201 to 10000 nM	CC(O)c1ccc(-c2ccc3c(N4CCOCC4)nc(-c4ccc(NC(=O)Nc5ccc(C(=O)N(C)C)cc5)c(F)c4)nc3c2)o1 (stereo not shown) [Example 214, 4-(3-(2-fluoro-4-(7-(5-(1-hydroxyethyl)furan-2-yl)-4-morpholino-quinazolin-2-yl)phenyl)ureido)-N,N-dimethyl-benzamide]
< 50 nM	< 50 nM		201 to 10000 nM	201 to 10000 nM	CN(C)C(=O)c1ccc(NC(=O)Nc2ccc(-c3nc(N4CCOCC4)c4ccc(-c5ccc(C(C)(C)O)o5)cc4n3)cc2)cc1 [Example 222, 4-(3-(4-(7-(5-(2-hydroxypropan-2-yl)furan-2-yl)-4-morpholino-quinazolin-2-yl)phenyl)ureido)-N,N-dimethyl-benzamide]
< 50 nM	< 50 nM		201 to 10000 nM	201 to 10000 nM	CN(C)C(=O)c1ccc(NC(=O)Nc2ccc(-c3nc(N4CCOCC4)c4ccc(-c5ccc(C#N)o5)cc4n3)cc2)cc1 [Example 223, 4-(3-(4-(7-(5-cyanofuran-2-yl)-4-morpholino-quinazolin-2-yl)phenyl)ureido)-N,N-dimethyl-benzamide]
< 50 nM	< 50 nM		201 to 10000 nM	201 to 10000 nM	CN(C)C(=O)c1ccc(NC(=O)Nc2ccc(-c3nc(N4CCOCC4)c4ncc(-c5cnn(C)c5)cc4n3)c(F)c2)cc1 [Example 238, 4-(3-(3-fluoro-4-(7-(1-methyl-1H-pyrazol-4-yl)-4-morpholino-pyrido[3,2-d]pyrimidin-2-yl)phenyl)ureido)-N,N-dimethyl-benzamide]
50 to 200 nM	< 50 nM		201 to 10000 nM	201 to 10000 nM	CN(C)C(=O)c1ccc(NC(=O)Nc2ccc(-c3nc(N4CCOCC4)c4ccc(-c5cccnc5F)cc4n3)c(F)c2)cc1 [Example 241, 4-(3-(3-fluoro-4-(7-(2-fluoropyridin-3-yl)-4-morpholino-quinazolin-2-yl)phenyl)ureido)-N,N-dimethyl-benzamide]
< 50 nM	< 50 nM		201 to 10000 nM	201 to 10000 nM	COc1ncc(-c2ccc3c(N4CCOCC4)nc(-c4ccc(NC(=O)Nc5ccc(C(=O)N(C)C)cc5)cc4F)nc3c2)cn1 [Example 242, 4-(3-(3-fluoro-4-(7-(2-methoxypyrimidin-5-yl)-4-morpholino-quinazolin-2-yl)phenyl)ureido)-N,N-dimethyl-benzamide]
< 50 nM	< 50 nM		201 to 10000 nM	201 to 10000 nM	CN(C)C(=O)c1ccc(NC(=O)Nc2ccc(-c3nc(N4CCOCC4)c4ccc(-c5cccnc5)cc4n3)c(F)c2)cc1 [Example 243, 4-(3-(3-fluoro-4-(4-morpholino-7-(pyridin-3-yl)quinazolin-2-yl)phenyl)ureido)-N,N-dimethyl-benzamide]
< 50 nM	< 50 nM		201 to 10000 nM	201 to 10000 nM	CN(C)C(=O)c1ccc(NC(=O)Nc2ccc(-c3nc(N4CCOCC4)c4ncc(-c5cccnc5F)cc4n3)c(F)c2)cc1 [Example 244, 4-(3-(3-fluoro-4-(7-(2-fluoropyridin-3-yl)-4-morpholino-pyrido[3,2-d]pyrimidin-2-yl)phenyl)ureido)-N,N-dimethyl-benzamide]
< 50 nM	50 to 200 nM		201 to 10000 nM	201 to 10000 nM	Cc1noc(C)c1-c1ccc2c(N3CCOCC3)nc(-c3ccc(NC(=O)Nc4ccc(C(=O)N(C)C)c(F)c4)cc3)nc2c1 [Example 246, 4-(3-(4-(7-(3,5-dimethylisoxazol-4-yl)-4-morpholino-quinazolin-2-yl)phenyl)ureido)-2-fluoro-N,N-dimethyl-benzamide]
50 to 200 nM	201 to 10000 nM		201 to 10000 nM	201 to 10000 nM	CN(C)C(=O)c1ccc(NC(=O)Nc2ccc(-c3nc(N4CCOCC4)c4ccc(-c5cccnc5NCCO)cc4n3)cc2)cc1 [Example 283, 4-(3-(4-(7-(2-((2-hydroxyethyl)amino)pyridin-3-yl)-4-morpholine-quinazolin-2-yl)phenyl)ureido)-N,N-dimethyl-benzamide]
< 50 nM	< 50 nM		201 to 10000 nM	201 to 10000 nM	CN(C)C1CCN(C(=O)c2ccc(NC(=O)Nc3ccc(-c4nc(N5CCOCC5)c5ccc(C(C)(C)O)cc5n4)cc3)cc2)CC1 [Example 286, 1-(4-(4-(dimethylamino)piperidine-1-carbonyl)phenyl)-3-(4-(7-(2-hydroxypropan-2-yl)-4-morpholino-quinazolin-2-yl)phenyl)urea]
